Measurements from patent US20240336642A1 (The General Hospital Corporation, priority 2021, published 2024).
Where a name gives a salt, the structure may show the parent alone.

Target: h12/15-LOX (Homo sapiens (Human), UniProt P16050)
Assay: 12/15-LOX enzyme inhibition IC50 assay (Examples 1 and 2)
Type: biochemical
Conditions: for Emax: h12/15-LOX, read-out: Max % inhibition
Method: Enzyme was then added to the cuvettes. […] The % inhibition for each test compound concentration were calculated as follows: […]

Chain of h12/15-LOX (P16050 whole entry): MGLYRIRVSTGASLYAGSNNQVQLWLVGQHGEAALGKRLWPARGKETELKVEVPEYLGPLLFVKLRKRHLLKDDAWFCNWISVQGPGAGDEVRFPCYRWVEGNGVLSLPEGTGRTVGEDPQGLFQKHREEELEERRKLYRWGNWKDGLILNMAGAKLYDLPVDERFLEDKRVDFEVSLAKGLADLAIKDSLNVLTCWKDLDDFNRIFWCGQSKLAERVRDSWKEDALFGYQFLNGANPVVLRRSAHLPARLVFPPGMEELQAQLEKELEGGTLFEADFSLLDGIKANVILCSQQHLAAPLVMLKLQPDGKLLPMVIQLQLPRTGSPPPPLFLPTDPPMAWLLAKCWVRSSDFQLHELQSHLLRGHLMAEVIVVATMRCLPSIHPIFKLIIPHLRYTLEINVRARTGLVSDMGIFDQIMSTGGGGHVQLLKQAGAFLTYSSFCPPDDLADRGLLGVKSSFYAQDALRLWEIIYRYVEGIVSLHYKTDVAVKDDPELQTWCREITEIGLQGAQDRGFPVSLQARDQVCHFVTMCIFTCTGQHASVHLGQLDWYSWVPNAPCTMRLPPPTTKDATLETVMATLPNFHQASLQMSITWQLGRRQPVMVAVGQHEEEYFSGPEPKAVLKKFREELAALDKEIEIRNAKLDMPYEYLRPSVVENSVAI

| IC50 [nM] | Emax [%] | Compound |
| --- | --- | --- |
| 170 | 89 | COCCNc1oc(-c2cc(Cl)cc(Cl)c2C)nc1C#N [Compound 41, 2-(3,5-Dichloro-2-methylphenyl)-5-((2-methoxyethyl)amino)oxazole-4-carbonitrile] |
|  | 100 | N#Cc1nc(-c2cc(Cl)cc(Cl)c2Cl)oc1NCC#CCOCc1ccc(CCN2CCOCC2)cc1 [Compound 86] |
| 1500 | 97 | N#Cc1nc(-c2cc(Cl)cc(C(F)(F)F)c2Cl)oc1NCCCCO [Compound 20, 2-(2,5-Dichloro-3-(trifluoromethyl)phenyl)-5-((4-hydroxybutyl)amino)oxazole-4-carbonitrile] |
| 1100 | 100 | COCCOCCNc1oc(-c2cc(Cl)cc(C)c2Cl)nc1C#N [Compound 36, 2-(2,5-Dichloro-3-methylphenyl)-5-((2-(2-methoxyethoxy)ethyl)amino)oxazole-4-carbonitrile] |
|  | 71 | CNc1oc(-c2cc(Cl)cc(OC)c2Cl)nc1C#N [Compound 9] |
| 8800 | 86 | N#Cc1nc(-c2cc(Cl)cc(Cl)c2Cl)oc1NCCOCCN1CCC(F)(F)C1 [Compound 92, 5-((2-(2-(3,3-Difluoropyrrolidin-1-yl)ethoxy)ethyl)amino)-2-(2,3,5-trichlorophenyl)oxazole-4-carbonitrile] |
| 180 | 99 | CNc1oc(-c2cc(Cl)cc(C)c2Cl)nc1C#N [Compound 6, 2-(2,5-Dichloro-3-methylphenyl)-5-(methylamino)oxazole-4-carbonitrile] |
| 300 | 77 | N#Cc1nc(-c2cc(Cl)cc(Cl)c2Cl)oc1NCCOCCNCC(F)(F)F [Compound 94, 2-(2,3,5-Trichlorophenyl)-5-((2-(2-((2,2,2-trifluoroethyl)amino)ethoxy)ethyl)amino)oxazole-4-carbonitrile] |
| 4400 | 93 | CN(CCF)CCOCCNc1oc(-c2cc(Cl)cc(Cl)c2Cl)nc1C#N [Compound 96, 5-((2-(2-((2-Fluoroethyl)(methyl)amino)ethoxy)ethyl)amino)-2-(2,3,5-trichlorophenyl)oxazole-4-carbonitrile] |
| 1100 | 61 | N#Cc1nc(-c2cc(Cl)cc(Cl)c2Cl)oc1NCCOCCN1CCCC(F)(F)C1 [Compound 75, 5-((2-(2-(3,3-Difluoropiperidin-1-yl)ethoxy)ethyl)amino)-2-(2,3,5-trichlorophenyl)oxazole-4-carbonitrile] |
| 160 | 95 | N#Cc1nc(-c2cc(Cl)cc(Cl)c2Cl)oc1NCCOCCOCC(F)(F)F [Compound 71, 2-(2,3,5-Trichlorophenyl)-5-((2-(2-(2,2,2-trifluoroethoxy)ethoxy)ethyl)amino)oxazole-4-carbonitrile] |
|  | 100 | COCCOCCNc1oc(-c2cc(Cl)cc(Cl)c2C)nc1C#N [Compound 34] |
| > 20000 | 37 | CNc1oc(-c2cc(Cl)cc(F)c2Cl)nc1C#N [Compound 7] |
| > 20000 |  | CN(C)CCCNC(=O)Nc1oc(-c2cc(Cl)cc(Cl)c2Cl)nc1C#N [Compound 67, 1-(4-cyano-2-(2,3,5-trichlorophenyl)oxazol-5-yl)-3-(3-(dimethylamino)propyl) urea hydrochloride] |
| > 20000 |  | N#Cc1nc(-c2cc(Cl)cc(Cl)c2Cl)oc1NCCOCCN1CC(F)C1 [Compound 77, 5-((2-(2-(3-Fluoroazetidin-1-yl)ethoxy)ethyl)amino)-2-(2,3,5-trichlorophenyl)oxazole-4-carbonitrile] |
| 260 | 95 | N#Cc1nc(-c2cc(Cl)cc(Cl)c2Cl)oc1NCCOCCNc1ccccc1 [Compound 81, 5-((2-(2-(Phenylamino)ethoxy)ethyl)amino)-2-(2,3,5-trichlorophenyl)oxazole-4-carbonitrile] |
| 290 | 94 | COCCNc1oc(-c2cc(Cl)cc(Cl)c2OC(F)F)nc1C#N [Compound 40, 2-(3,5-Dichloro-2-(difluoromethoxy)phenyl)-5-((2-methoxyethyl)amino)oxazole-4-carbonitrile] |
| 870 | 93 | CNc1oc(-c2cc(F)cc(Cl)c2Cl)nc1C#N [Compound 11, 2-(2,3-Dichloro-5-fluorophenyl)-5-(methylamino)oxazole-4-carbonitrile] |
| > 20000 |  | N#Cc1nc(-c2cc(Cl)cc(Cl)c2Cl)oc1NCCOCCOCCOc1ccncc1 [Compound 100, 5-((2-(2-(2-(Pyridin-4-yloxy)ethoxy)ethoxy)ethyl)amino)-2-(2,3,5-trichlorophenyl)oxazole-4-carbonitrile] |
| > 20000 |  | CN(C)CCCC(=O)Nc1oc(-c2cc(Cl)cc(Cl)c2Cl)nc1C#N [Compound 65, N-(4-Cyano-2-(2,3,5-trichlorophenyl)oxazol-5-yl)-4-(dimethylamino)butanamide hydrochloride] |
|  | 38 | N#Cc1nc(-c2cc(Cl)cc(Cl)c2F)oc1NCCCCCO [Compound 25] |

| IC50 [nM] | Emax [%] | Compound |
| --- | --- | --- |
| 8300 | 100 | CN(C)CCCCC(=O)N(C)c1oc(-c2cc(Cl)cc(Cl)c2Cl)nc1C#N [Compound 62, N-(4-Cyano-2-(2,3,5-trichlorophenyl)oxazol-5-yl)-5-(dimethylamino)-N-methylpentanamide hydrochloride] |
| 3000 | 100 | N#Cc1nc(-c2cc(Cl)cc(Cl)c2OC(F)F)oc1NCCOCCO [Compound 29, 2-(3,5-Dichloro-2-(difluoromethoxy)phenyl)-5-((2-(2-hydroxyethoxy)ethyl)amino)oxazole-4-carbonitrile] |
| 180 | 61 | Cc1cc(OCCOCCNc2oc(-c3cc(Cl)cc(Cl)c3Cl)nc2C#N)cc(C)n1 [Compound 83, 5-((2-(2-((2,6-Dimethylpyridin-4-yl)oxy)ethoxy)ethyl)amino)-2-(2,3,5-trichlorophenyl)oxazole-4-carbonitrile] |
| > 20000 |  | N#Cc1nc(-c2cc(Cl)cc(Cl)c2Cl)oc1NCCOCCNc1ccncc1 [Compound 91, 5-((2-(2-(Pyridin-4-ylamino)ethoxy)ethyl)amino)-2-(2,3,5-trichlorophenyl)oxazole-4-carbonitrile] |
| 6600 | 100 | COCCOCCNc1oc(-c2cc(C)cc(Cl)c2Cl)nc1C#N [Compound 38, 2-(2,3-Dichloro-5-methylphenyl)-5-((2-(2-methoxyethoxy)ethyl)amino)oxazole-4-carbonitrile] |
| > 20000 | 17 | N#Cc1nc(-c2cc(Cl)cc(Cl)c2Cl)oc1NCCOCCOc1cccnn1 [Compound 79, 5-((2-(2-(Pyridazin-3-yloxy)ethoxy)ethyl)amino)-2-(2,3,5-trichlorophenyl)oxazole-4-carbonitrile] |
| > 20000 |  | COCCOC(=O)Nc1oc(-c2cc(Cl)cc(Cl)c2Cl)nc1C#N [Compound 58, 2-Methoxyethyl (4-cyano-2-(2,3,5-trichlorophenyl)oxazol-5-yl)carbamate] |
| 250 | 74 | N#Cc1nc(-c2cc(Cl)cc(Cl)c2Cl)oc1NCCOCCOc1cccnc1 [Compound 76, 5-((2-(2-(Pyridin-3-yloxy)ethoxy)ethyl)amino)-2-(2,3,5-trichlorophenyl)oxazole-4-carbonitrile] |
|  | 98 | N#Cc1nc(-c2cc(Cl)cc(Cl)c2Cl)oc1NCCOCCNCCF [Compound 93] |
| > 20000 | 49 | N#Cc1nc(-c2cc(Cl)cc(Cl)c2Cl)oc1NCCOCCN1CCC(F)C1 (stereo not drawn) [Compound 78, 5-((2-(2-(3-Fluoropyrrolidin-1-yl)ethoxy)ethyl)amino)-2-(2,3,5-trichlorophenyl)oxazole-4-carbonitrile] |
| 170 | 92 | C/C=C/CNc1oc(-c2cc(Cl)cc(Cl)c2Cl)nc1C#N [Compound 15, (E)-5-(But-2-en-1-ylamino)-2-(2,3,5-trichlorophenyl)oxazole-4-carbonitrile] |
| > 20000 |  | CN(C)CCCCCC(=O)N(C)c1oc(-c2cc(Cl)cc(Cl)c2Cl)nc1C#N [Compound 61, N-(4-cyano-2-(2,3,5-trichlorophenyl)oxazol-5-yl)-6-(dimethylamino)-N-methylhexanamide hydrochloride] |
| 490 | 68 | N#Cc1nc(-c2cc(Cl)cc(Cl)c2Cl)oc1NCCOCCOc1ccncc1F [Compound 84, 5-((2-(2-((3-Fluoropyridin-4-yl)oxy)ethoxy)ethyl)amino)-2-(2,3,5-trichlorophenyl)oxazole-4-carbonitrile] |
| 4600 | 73 | N#Cc1nc(-c2cc(Cl)cc(Cl)c2Cl)oc1NCCOCCOc1ccnnc1 [Compound 103, 5-((2-(2-(Pyridazin-4-yloxy)ethoxy)ethyl)amino)-2-(2,3,5-trichlorophenyl)oxazole-4-carbonitrile] |
| 330 | 100 | CCOCCOCCNc1oc(-c2cc(Cl)cc(Cl)c2Cl)nc1C#N [Compound 69, 5-((2-(2-Ethoxyethoxy)ethyl)amino)-2-(2,3,5-trichlorophenyl)oxazole-4-carbonitrile] |
| > 20000 |  | N#Cc1nc(-c2cc(Cl)cc(Cl)c2Cl)oc1NCCOCCN1CCCC(F)C1 (stereo not drawn) [Compound 74, 5-((2-(2-(3-Fluoropiperidin-1-yl)ethoxy)ethyl)amino)-2-(2,3,5-trichlorophenyl)oxazole-4-carbonitrile] |
| > 20000 |  | N#Cc1nc(-c2cc(Cl)cc(Cl)c2Cl)oc1NCCOCCN1CCC(F)CC1 [Compound 80, 5-((2-(2-(4-Fluoropiperidin-1-yl)ethoxy)ethyl)amino)-2-(2,3,5-trichlorophenyl)oxazole-4-carbonitrile] |
| > 20000 |  | CN(C)CCCOC(=O)Nc1oc(-c2cc(Cl)cc(Cl)c2Cl)nc1C#N [Compound 57, 3-(dimethylamino) propyl (4-cyano-2-(2,3,5-trichlorophenyl)oxazol-5-yl) carbamate hydrochloride] |
| > 20000 |  | CN(C)CCCCCC(=O)Nc1oc(-c2cc(Cl)cc(Cl)c2Cl)nc1C#N [Compound 63, N-(4-cyano-2-(2,3,5-trichlorophenyl)oxazol-5-yl)-6-(dimethylamino) hexanamide hydrochloride] |
| 2000 | 97 | N#Cc1nc(-c2cc(Cl)cc(Cl)c2OC(F)F)oc1NCCCCCO [Compound 23, 2-(3,5-Dichloro-2-(difluoromethoxy)phenyl)-5-((5-hydroxypentyl)amino)oxazole-4-carbonitrile] |
